These results are taken from patent publication US11591323B2, “Muscarinic agonists as non-steroidal and non-opioid analgesics and methods of use thereof” (Barry University, priority 2019, dated 2023).

In the assay the target is T1, M1 muscarinic receptor (Homo sapiens, UniProt P11229).
T1 sequence (P11229 1-460): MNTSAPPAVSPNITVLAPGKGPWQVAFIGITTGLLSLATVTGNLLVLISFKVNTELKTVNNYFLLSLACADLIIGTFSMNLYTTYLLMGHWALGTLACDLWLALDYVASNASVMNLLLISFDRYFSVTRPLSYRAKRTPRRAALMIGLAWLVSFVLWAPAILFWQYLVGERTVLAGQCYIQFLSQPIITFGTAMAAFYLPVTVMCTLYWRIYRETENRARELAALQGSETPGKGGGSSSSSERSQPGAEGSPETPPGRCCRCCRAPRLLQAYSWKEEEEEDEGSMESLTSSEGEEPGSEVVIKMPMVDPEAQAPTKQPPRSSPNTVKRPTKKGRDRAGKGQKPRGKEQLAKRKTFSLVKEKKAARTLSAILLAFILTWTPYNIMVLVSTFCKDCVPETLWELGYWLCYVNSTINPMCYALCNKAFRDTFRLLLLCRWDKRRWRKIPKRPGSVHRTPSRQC
The experiment in a line: accumulation of IPX, M1 CHO cells transfected with G15 (M1Gq+G15). As to conditions: for EC50: read-out: pEC50 (converted); for Kd: read-out: pKA (converted). On the set-up: host or cells: CHO cells. The class given is cell-based. On the procedure: To determine level of cAMP, cells in suspension were pre-incubated for 1 h with 0.4 μM [^3H]adenine, washed, and incubated for 10 min in the presence of isobutylmethylxanthine and 10 μM forskolin. […] Incubation was ended by addition of 0.2 ml of 2.5 M HCl to the samples. Samples were applied to alumina columns (1.5 g of alumina per column), washed with 2 ml ammonium acetate (pH=7.0) and eluted from columns with 4 ml ammonium acetate and measured by liquid scintillation spectrometry. […] The incubation was stopped by addition of 0.5 ml of chloroform methanol HCl mixture (2:1:0.1). After separation of water and organic phases, 0.6 ml of water phase was applied to Dowex columns (1.5 g of Dowex per column), washed by 20 ml of 60 mM ammonium formate/5 mM sodium borate buffer and eluted from columns with 4 ml of 1M ammonium formate/0.1 formic acid buffer and measured by liquid scintillation spectrometry.
Measurements of the production of cAMP and inositol phosphates: Levels of second messengers cAMP and inositol phosphates were determined in radiochemical chromatography assays as described previously. To determine level of cAMP, cells in suspension were pre-incubated for 1 h with 0.4 μM [^3H]adenine, washed, and incubated for 10 min in the presence of isobutylmethylxanthine and 10 μM forskolin. […] Incubation was ended by addition of 0.2 ml of 2.5 M HCl to the samples. Samples were applied to alumina columns (1.5 g of alumina per column), washed with 2 ml ammonium acetate (pH=7.0) and eluted from columns with 4 ml ammonium acetate and measured by liquid scintillation spectrometry. […] For this purpose, new CHO cell lines stably expressing promiscuous G15 G-protein and M2 or M4 receptor were generated by transfection with pCMV/hygro vector and hygromycin selection. To determine the rate of formation of inositol phosphates IPX, suspended cells were pre-incubated with 0.1 μM [^3H]myo-inositol for 60 min, washed, and incubated with 10 mM LiCl for 15 min. […] The incubation was stopped by addition of 0.5 ml of chloroform methanol HCl mixture (2:1:0.1). After separation of water and organic phases, 0.6 ml of water phase was applied to Dowex columns (1.5 g of Dowex per column), washed by 20 ml of 60 mM ammonium formate/5 mM sodium borate buffer and eluted from columns with 4 ml of 1M ammonium formate/0.1 formic acid buffer and measured by liquid scintillation spectrometry.
For bi-phasic response, curves were inhibitory and stimulatory phase were fitted separately. Operational Model of Functional Agonism
[formula] where y is functional response at concentration of tested compound x, EMAX is maximal response of the system, KA is equilibrium dissociation constant and nH is slope factor. Eq. 5 was fitted to data from functional experiments. Eq. 5 was fitted to data by the two-step procedure described earlier. […] In the second step, Eq. 5 with EMAX fixed to the value determined in the first step was fitted to individual experimental data sets. Relative Intrinsic Activity

The mark [1] stands for this setting: M1Gq + G15 (↑IPX), Table 8, relative to carbachol.
[2] abbreviates: M1Gq + G15 (↑IPX), Table 8, to carbachol.

pEC50, pKd: −log10 of the molar value. Where two headings read alike, the source gives them in different places.

For orientation: pEC50 means the EC50 on a negative log10 scale, so that one unit is a factor of ten. A lower pEC50 goes with a high EC50. The pKd is the Kd on a negative log10 scale, so that one unit is a factor of ten. The low end stands for a large Kd, the high end for a small Kd.

Consider `C[N+]1(Cc2cccs2)CC=CCC1.[I-]` (stereo not drawn) [Compound 7A, 1-methyl-1-[(thiophen-2-yl)methyl]-1,2,3,6-tetrahydropyridin-1-ium iodide], for which, under “M1Gq + G15 (↑IPX), Table 8”, the “E′MAX” value came out at 4.6 ± 0.4 fold increase, the τ is on record as 0.12 ± 0.01, the EC50 is 2630 nM and the Kd is 3160 nM. Besides, the RAi under setting [1] is 0.0111 ± 0.0002. The “Δlog(τ/KA)” value under setting [2] is given as 1.96 ± 0.16.
Consider `O=C1CCCN1CC#CCN1CCCC1` [oxotremorine, reference compound], for which the pEC50 was 7.28, the “E′MAX” value came to 25 ± 2 fold increase, the pKd was 6.70 and the RAi is listed as 3.71 ± 0.29. Moreover, the “Δlog(τ/KA)” value is −0.57 ± 0.06 and the τ was 2.6 ± 0.3.
On to `C1=CCN(Cc2cccs2)CC1.Cl` [Compound 6A, 1-[(thiophen-2-yl)methyl]-1,2,3,6-tetrahydropyridin-1-ium chloride], for which, under “M1Gq + G15 (↑IPX), Table 8”, the “E′MAX” value stood at 2.0 ± 0.2 fold increase, the τ is given as 0.03 ± 0.01, the EC50 was 7940 nM and the Kd is 7940 nM. Moreover, the RAi under setting [1] is given as 0.0010 ± 0.0001. For the same molecule, under setting [2], the “Δlog(τ/KA)” value was 2.98 ± 0.26.
